According to patent publication US20110237549A1, “MODULATORS OF RNA RIBOSWITCHES” (MEMORIAL SLOAN KETTERING CANCER CENTER, priority 2008, published 2011):

Columns and labels:
[1] = test system: 112-nucleotide F. nucleatum FMN riboswitch; experiment: fluorescent binding assay with the 112-nucleotide F. nucleatum FMN riboswitch; conditions: for Kd: read-out: dissociation constants (mean s.d.), 112-nucleotide riboswitch, 2 mM MgCl2 and 100 mM KCl
[2] = test system: 143-nucleotide B. subtilis FMN riboswitch; experiment: fluorescent binding assay with the 143-nucleotide B. subtilis FMN riboswitch; conditions: Bacillus subtilis riboswitch
Procedure: FIG. 9. The metabolite-sensing domain of the B. subtilis FMN riboswitch. a, The sequence of the 143-nucleotide fragment of B. subtilis riboswitch 5 is presented as a secondary structure schematic, which is based on the consensus secondary structure of the FMN riboswitches with small corrections from the three-dimensional structure of the F nucleatum riboswitch. b, Binding of FMN and its analogs to the 143-nucleotide B. subtilis FMN riboswitch. All measurements were performed using fluorescent assay.

[3] = test system: 265-nucleotide full-length T. maritima lysine riboswitch; experiment: primer extension assay (reverse transcriptase pausing at A169); format: biochemical, Thermotoga maritima
From the text: FIG. 39. Interactions of lysine and its analogs with the T. maritima lysine riboswitch studied by primer extension. a and b, Representative gels of riboswitch titration by lysine (a) and AEC (b). Reverse transcriptase (RT) pauses three nucleotides prior to the j unction at A169 in the context of the full-length riboswitch if the riboswitch-binding ligand is present in the reaction mixture. c, Representative titration experiments used for calculations of the ligand concentration (FIG. 4c) at which RT pausing is half-maximally attained. The experimental data points for lysine and AEC are from panels (a) and (b). The data were fitted to equation (1), which is based on the equation describing a bimolecular equilibrium, by the nonlinear least squares analysis. In the equation
θ is the fraction of RT pausing, No and Lo are RNA and ligand concentrations, respectively, and P50 is the apparent ligand concentration at which RT pausing is half-maximally attained. The P50 value for the lysine-induced RT pausing 5.50±0.53/−1M (mean±s.d.) (n=2) is similar to the Kd value 4.03±0.34/−1M (mean±s.d.) (n=2) determined by the equilibrium dialysis assay. The relative differences between the P50 values for lysine and its analogs are in overall agreement with the relative differences obtained from the Kd values for lysine and its analogs determined for the B. subtilis lysine riboswitch in ref. 5.
Primer extension experiments were performed using 265-nucleotide full-length riboswitch. The 32P-labelled 13-mer DNA oligonucleotide (100,000 c.p.m.), complementary to nucleotides 253-265 of RNA, was annealed to the 39 end of RNA (final RNA concentration […] in the assay). Primer extension was conducted in […] volume with 40 U of moloney murine leukaemia virus reverse transcriptase in 50 mM Na-HEPES, pH 7.9, 2 mM MgCl2, and variable concentrations of NaCl and KCl (FIG. 4), with or without a tenfold excess of lysine over RNA. After 30 min incubation at 37° C., the reactions were precipitated with ethanol, dissolved in loading buffer and analysed by 10% PAGE. Efficiency of lysine-induced pausing of reverse transcriptase at nucleotide A169 was quantified using FLA-7000 PhosphorImager and Image Gauge software (Fujifilm). Band intensities from independent experiments were averaged after gel-loading correction, background subtraction and normalization. The primer extension assay in the presence of lysine analogues was performed in 50 mM Na-HEPES, pH 7.9, 2 mM MgCl2, 50 mM KCl, and lysine analogues in the range 1028-1022 M. The data were fitted using a bimolecular equilibrium equation (Supplementary FIG. 12) and the resulting P50 values are reported in FIG. 4c. Reverse transcriptase sequencing reactions were run in parallel.

[4] = test system: mRNA that contains the FMN riboswitch; conditions: used at a 17-fold higher concentration than FMN; cited from earlier work
[5] = test system: T. maritima lysine riboswitch; experiment: equilibrium dialysis, T. maritima lysine riboswitch; format: binding, Thermotoga maritima
Procedure: (§1) The assay was performed as described in Sudarsan, et al., An mRNA structure in bacteria that controls gene expression by binding lysine, Genes Dev. 17:2688-2697 (2003) using 5 kDa DispoEquilibrium DIALYZERS (Harvard Apparatus). In brief, […] RNA (from 0.001 to 20 mM) in the in-line probing buffer was placed in chamber A of the dialyser and equilibrated for 16 h at room temperature against chamber B containing […] 3H-labelled lysine (1 nM; 6,000 c.p.m.) in the same buffer. The amount of bound lysine was calculated by subtracting the radioactivity counts of chamber B from chamber A. The data were fitted using a bimolecular equilibrium equation, assuming that the free lysine concentration is negligible.

[6] = test system: B. subtilis lysine riboswitch; experiment: equilibrium dialysis, B. subtilis lysine riboswitch; format: binding; conditions: Bacillus subtilis riboswitch
Procedure: as §1

[7] = biological target: 220-nucleotide full-length F. nucleatum FMN riboswitch; experiment: fluorescent binding assay with the 220-nucleotide full-length F. nucleatum impX FMN riboswitch; design: species or system Fusobacterium nucleatum; conditions: 220-nucleotide RNA; read-out: Kd (mean±s.d.)

Cc1cc2nc3c(=O)[nH]c(=O)nc-3n(C[C@H](O)[C@H](O)[C@H](O)CO)c2cc1C [riboflavin]
decrease of binding affinity compared with binding of FMN ([1]; F. nucleatum riboswitch): about 1,000 fold
Kd [1]: 39.8 µM
decrease of binding affinity compared with binding of FMN [2]: about 1,000 fold

NCCSC[C@H](N)C(=O)O [AEC, S-(2-aminoethyl)-L-cysteine]
binding to the riboswitch relative to lysine in primer extension [3]: weaker binding

Cc1cc2nc3c(=O)[nH]c(=O)nc-3n(C)c2cc1C [lumiflavin]
effect of additional removal of the ribityl moiety on binding affinity ([1]; compared with riboflavin): reduces binding affinity to only a very small extent
Kd [1]: 59 µM

Cc1cc2nc3c(=O)[nH]c(=O)nc-3n(C[C@H](O)[C@H](O)[C@H](O)COP(=O)(O)OP(=O)(O)OC[C@H]3O[C@@H](n4cnc5c(N)ncnc54)[C@H](O)[C@@H]3O)c2cc1C [FAD, flavin adenine dinucleotide]
inhibition of transcription in vitro [4]: inhibited

NCCCC[C@H](N)C(=O)O [lysine, L-lysine]
lysine binding affinity when K+ was omitted or replaced by Na+ [5]: significantly decreased
lysine binding affinity when K+ was omitted or replaced by Na+ [6]: significantly decreased
decrease of reverse transcriptase pause after replacement of K+ by Na+ ([3]; in the presence of lysine): 33 fold

Cc1cc2nc3c(=O)[nH]c(=O)nc-3n(C[C@H](O)[C@H](O)[C@H](O)COP(=O)(O)O)c2cc1C [FMN, flavin mononucleotide]
Kd [7]: 0.134 ± 0.0139 µM
binding to the riboswitch in the presence of cobalt hexamine ([1]; cobalt hexamine in place of Mg2+): equally well
reduction of binding affinity in the presence of iridium hexamine ([1]; iridium hexamine in place of Mg2+): about 15 fold

CC(=N)NCCCC[C@H](N)C(=O)O [N6-1-iminoethyl-L-lysine]
binding to the riboswitch relative to lysine in primer extension [3]: weaker interactions than lysine

N=C(N)NCCCC[C@H](N)C(=O)O [L-homoarginine]
binding to the riboswitch relative to lysine in primer extension [3]: weaker interactions than lysine

NCCOC[C@H](N)C(=O)O [L-4-oxalysine]
binding to the riboswitch relative to lysine in primer extension [3]: weaker binding
